Assays:
Type in all cases: physicochemical
[1] = hygroscopicity of the crystalline modifications; conditions: in all three crystalline modifications (form I, form II, hemihydrate)
[2] = solubility in physiologically acceptable acid aqueous media; conditions: all three crystalline modifications
[3] = amorphization during grinding and compression; conditions: all three crystalline modifications

hygroscopicity [1]: non-hygroscopic
solubility [2]: dissolves very easily
amorphization [3]: low amorphization
SMILES: CCCCCCOC(=O)NC(=N)c1ccc(NCc2nc3cc(C(=O)N(CCC(=O)OCC)c4ccccn4)ccc3n2C)cc1 [methanesulfonate, ethyl 3-[(2-{[4-(hexyloxycarbonylaminoimino-methyl)phenylamino]methyl}-1-methyl-1H-benzimidazole-5-carbonyl)pyridin-2-ylamino]propionate methanesulfonate]

— patent US7932273B2, “3-[(2-{[4-(hexyloxycarbonylaminoiminomethyl) phenylamino]methyl}-1-methyl-1H-benzimidazol-5-carbonyl)pyridin-2-ylamino]propionic acid ethylester methansulfonate and its use as a medicament” (Boehringer Ingelheim International GmbH, priority 2003, dated 2011)
